Measured values from US20180319810A1, “SUBSTITUTED BRIDGED UREA ANALOGS AS SIRTUIN MODULATORS” (GlaxoSmithKline Intellectual Property (No.2) Limited, priority 2014, published 2018).

Biological target: T1, SIRT1 (Homo sapiens, UniProt Q96EB6)
T1 sequence (Q96EB6 1-747): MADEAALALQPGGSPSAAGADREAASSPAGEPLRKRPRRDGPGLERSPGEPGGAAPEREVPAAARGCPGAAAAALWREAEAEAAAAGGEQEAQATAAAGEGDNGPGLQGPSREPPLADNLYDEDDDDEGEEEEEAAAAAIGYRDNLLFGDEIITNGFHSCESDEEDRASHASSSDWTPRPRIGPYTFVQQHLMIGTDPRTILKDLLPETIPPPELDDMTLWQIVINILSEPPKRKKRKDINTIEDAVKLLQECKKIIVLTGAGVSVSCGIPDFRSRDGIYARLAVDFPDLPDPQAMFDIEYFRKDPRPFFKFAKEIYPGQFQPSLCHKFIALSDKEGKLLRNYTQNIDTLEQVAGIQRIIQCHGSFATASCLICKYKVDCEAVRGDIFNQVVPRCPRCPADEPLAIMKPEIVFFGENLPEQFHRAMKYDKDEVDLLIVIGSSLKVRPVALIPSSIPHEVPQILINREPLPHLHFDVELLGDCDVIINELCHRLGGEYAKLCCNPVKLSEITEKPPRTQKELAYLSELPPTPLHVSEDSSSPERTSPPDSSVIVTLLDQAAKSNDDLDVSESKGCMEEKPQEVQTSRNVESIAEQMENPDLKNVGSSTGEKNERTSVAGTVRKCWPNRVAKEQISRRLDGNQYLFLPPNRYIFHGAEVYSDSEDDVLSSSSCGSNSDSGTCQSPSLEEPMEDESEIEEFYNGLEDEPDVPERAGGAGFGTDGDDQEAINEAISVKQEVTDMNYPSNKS
Test: Trp mass spectrometry assay of SIRT1 activation
Assay type: biochemical
Conditions: Trp peptide Ac-R-H-K-K(Ac)-W-NH2 0.5 μM, 120 μM βNAD+, 10 nM SIRT1, 25 min, 25° C.

Row | TRP Activity (EC1.5, concentration of compound required to increase SIRT1 activity by 50% over control) | TRP MAX RESP (percent maximum fold activation relative to control) | SMILES
1 | A (EC1.5<1 μM) | A (Fold activation ≥150%) | Cc1nc(-c2cccc(C(F)(F)F)c2)nc2c1N1CCC[C@@H](C1)N2C(=O)Nc1cncc(OC[C@H](O)CO)c1 [Example 107, (9S)—N-(5-((R)-2,3-dihydroxypropoxy)pyridin-3-yl)-4-methyl-2-(3-(trifluoromethyl)phenyl)-8,9-dihydro-6H-5,9-methanopyrimido[4,5-b][1,4]diazocine-10(7H)-carboxamide]
2 | B (EC1.5 1-25 μM) | A (Fold activation ≥150%) | O=C(Nc1cc(OC[C@@H](O)CO)ncn1)N1c2nc(-c3cccc(C(F)(F)F)c3)ncc2N2CC[C@H]1C2 [Example 29, (8S)—N-(6-((S)-2,3-dihydroxypropoxy)pyrimidin-4-yl)-2-(3-(trifluoromethyl)phenyl)-7,8-dihydro-5,8-methanopyrimido[4,5-b][1,4]diazepine-9(6H)-carboxamide]
3 | A (EC1.5<1 μM) | A (Fold activation ≥150%) | O=C(Nc1cnc(OC[C@@H](O)CO)nc1)N1c2nc(-c3cccc(C(F)(F)F)c3)ncc2N2CCC[C@H]1C2 [Example 102, (9S)—N-(2-((S)-2,3-dihydroxypropoxy)pyrimidin-5-yl)-2-(3-(trifluoromethyl)phenyl)-8,9-dihydro-6H-5,9-methanopyrimido[4,5-b][1,4]diazocine-10(7H)-carboxamide]
4 | A (EC1.5<1 μM) | A (Fold activation ≥150%) | C[C@@H](NC(=O)c1ncc2c(n1)N(C(=O)Nc1ccccn1)[C@H]1CCN2C1)C(F)(F)F [Example 59, (8S)—N9-(pyridin-2-yl)-N2-((R)-1,1,1-trifluoropropan-2-yl)-7,8-dihydro-5,8-methanopyrimido[4,5-b][1,4]diazepine-2,9(6H)-dicarboxamide]
